Source: PubChem BioAssay AID489003 (NMMLSC, 2010)
Activity calls are given as the source filed them.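 How the source made its calls: active means compounds whose weighted score, built from EC50 under 10 micromolar and fitted span over a set limit, tops 52; inactive means the rest.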

Each compound was assayed against Broad substrate specificity ATP-binding cassette transporter ABCG2 (Homo sapiens) (UniProt Q9UNQ0) (assay: blockade of ABCG2-mediated dye efflux – Ig-MXP3 cells, JC-1 substrate, flow cytometry, dose response (AID 489003)). Settings: JC-1 efflux.
Broad substrate specificity ATP-binding cassette transporter ABCG2 (Homo sapiens), sequence (Q9UNQ0 whole entry, looked up): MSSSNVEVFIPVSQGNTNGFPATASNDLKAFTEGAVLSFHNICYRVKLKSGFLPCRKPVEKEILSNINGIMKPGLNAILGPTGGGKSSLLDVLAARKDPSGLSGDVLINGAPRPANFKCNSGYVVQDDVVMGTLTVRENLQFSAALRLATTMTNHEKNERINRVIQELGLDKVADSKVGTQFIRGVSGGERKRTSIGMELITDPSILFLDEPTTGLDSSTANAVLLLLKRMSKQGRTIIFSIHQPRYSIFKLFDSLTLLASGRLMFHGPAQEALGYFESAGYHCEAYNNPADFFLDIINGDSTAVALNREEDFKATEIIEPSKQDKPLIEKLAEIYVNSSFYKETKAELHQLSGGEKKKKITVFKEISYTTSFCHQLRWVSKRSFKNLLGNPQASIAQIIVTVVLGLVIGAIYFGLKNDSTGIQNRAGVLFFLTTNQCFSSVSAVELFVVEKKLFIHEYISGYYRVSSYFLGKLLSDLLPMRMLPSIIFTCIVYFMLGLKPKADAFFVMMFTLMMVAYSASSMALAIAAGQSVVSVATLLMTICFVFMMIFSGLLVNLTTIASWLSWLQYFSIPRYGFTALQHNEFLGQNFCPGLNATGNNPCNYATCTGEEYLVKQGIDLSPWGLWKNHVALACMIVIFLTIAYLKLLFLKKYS
With `CC(C)(C)c1cc(N2CCN(C(=O)c3ccoc3)CC2)n2nc(-c3ccccc3)cc2n1` the EC50 was “inactive”. Work on `O=C(c1ccoc1)N1CCN(c2cc(-c3ccccc3)nc3cc(-c4ccncc4)nn23)CC1` yielded an EC50 of 1030 nM. Work on `O=C(c1coc2ccccc12)N1CCN(c2cc(-c3ccco3)nc3cc(-c4ccccc4)nn23)CC1` yielded an EC50 of 1460 nM. `CC(=O)N1CCN(c2cc(-c3ccccc3)nc3cc(-c4ccccc4)nn23)CC1` gave an EC50 of 2360 nM. With `COc1cccc(-c2cc3nc(-c4cccc(C#N)c4)cc(N4CCN(C(=O)c5ccoc5)CC4)n3n2)c1` the EC50 was 2530 nM. Compound `Cc1ccc(-c2cc(N3CCN(C(=O)c4ccoc4)CC3)n3nc(-c4ccccc4)cc3n2)o1` has an EC50 of 1450 nM. In the case of `Cc1cc(N2CCN(C(=O)c3ccoc3)CC2)n2nc(-c3ccccc3)cc2n1`, the EC50 is reported as 7190 nM. With `Cc1nc2cc(-c3ccccc3)nn2c(N2CCN(C(=O)c3ccoc3)CC2)c1C` the EC50 was 2000 nM. Work on `O=C(c1ccoc1)N1CCN(c2cc(-c3cccc(F)c3)nc3cc(-c4cccc(Cl)c4)nn23)CC1` yielded an EC50 of 2300 nM. Work on `COc1cccc(-c2cc3nc(C)c(C)c(N4CCN(Cc5ccco5)CC4)n3n2)c1` yielded an EC50 of 393 nM. With `O=C(c1ccoc1)N1CCN(c2cc(-c3ccc(F)cc3)nc3cc(-c4ccccc4)nn23)CC1` the EC50 was 12100 nM. `CNCCN(C)c1cc(-c2ccco2)nc2cc(-c3ccccc3)nn12` was tested, and the EC50 was “inactive”. `CCc1c(C)nc2cc(-c3cccc(OC)c3)nn2c1N1CCN(C(=O)c2ccoc2)CC1` showed an EC50 of 1450 nM. `COc1cccc(-c2cc3nc(C)cc(N4CCN(C(=O)c5ccoc5)CC4)n3n2)c1` showed an EC50 of 4570 nM. In the case of `COc1ccc(-c2cc3nc(-c4ccccc4)cc(N4CCN(C(=O)c5ccoc5)CC4)n3n2)cc1`, the EC50 is reported as 1620 nM. Compound `Cc1nc2cc(-c3ccc(Br)cc3)nn2c(N2CCN(C(=O)c3ccoc3)CC2)c1C` has an EC50 of 10100 nM. For `Cc1occc1C(=O)N1CCN(c2cc(-c3ccco3)nc3cc(-c4ccccc4)nn23)CC1`, the EC50 was 1690 nM. With `O=C(c1ccoc1)N1CCN(c2cc(-c3cccc(F)c3)nc3cc(-c4ccccc4)nn23)CC1` the EC50 was 2110 nM. In the case of `O=C(c1ccoc1)N1CCN(c2cc(-c3ccoc3)nc3cc(-c4ccccc4)nn23)CC1`, the EC50 is reported as 1590 nM. `COc1ccccc1-c1cc(N2CCN(C(=O)c3ccoc3)CC2)n2nc(-c3ccccc3)cc2n1` gave an EC50 of 1870 nM. Work on `Cc1nn2c(N3CCN(C(=O)c4ccco4)CC3)cc(C(C)(C)C)nc2c1-c1ccc(Cl)cc1` yielded an EC50 of 1920 nM. With `CNCCCN(C)c1cc(-c2ccco2)nc2cc(-c3ccccc3)nn12` the EC50 was “inactive”. `O=C(c1ccco1)N1CCN(c2cc(-c3ccco3)nc3cc(-c4ccccc4)nn23)CC1` showed an EC50 of 852 nM. `COc1ccc(-c2cc3nc(C)c(C)c(N4CCN(C(=O)c5ccco5)CC4)n3n2)cc1` gave an EC50 of 2680 nM. For `COc1cccc(-c2cc3nc(C)c(C)c(N4CCN(C(=O)c5ccco5)CC4)n3n2)c1`, the EC50 was 7100 nM. Work on `O=C(c1ccoc1)N1CCN(c2cc(-c3ccco3)nc3cc(-c4ccco4)nn23)CC1` yielded an EC50 of 697 nM. Work on `O=C(c1ccoc1)N1CCN(c2cc(-c3ccco3)nc3cc(-c4cccc(Cl)c4)nn23)CC1` yielded an EC50 of 2960 nM. In the case of `c1ccc(-c2cc3nc(-c4ccco4)cc(N4CCNCC4)n3n2)cc1`, the EC50 is reported as 6980 nM. `COc1cccc(-c2cc(N3CCN(C(=O)c4ccoc4)CC3)n3nc(-c4cccc(OC)c4)cc3n2)c1` showed an EC50 of 540 nM. In the case of `O=C(c1ccoc1)N1CCN(c2cc(-c3ccco3)nc3cc(-c4ccc(Cl)cc4)nn23)CC1`, the EC50 is reported as 2720 nM. `O=C(c1ccsc1)N1CCN(c2cc(-c3ccco3)nc3cc(-c4ccccc4)nn23)CC1` was tested, and the EC50 was 2870 nM. With `COc1ccc(-c2cc3nc(C)c(C)c(N4CCN(C(=O)c5ccoc5)CC4)n3n2)cc1` the EC50 was 1200 nM. `Cc1cccc(-c2cc3nc(-c4ccco4)cc(N4CCN(C(=O)c5ccoc5)CC4)n3n2)c1` was tested, and the EC50 was 9090 nM. Work on `O=C(c1ccco1)N1CCN(c2cc(-c3ccccc3)nc3ncnn23)CC1` yielded an EC50 of 3550 nM. `O=C(C1CCCO1)N1CCN(c2c3c(nc4cc(-c5cccc(F)c5)nn24)CCCC3)CC1` (centres undefined) was tested, and the EC50 was “inactive”. `Cc1ccc(-c2cc3nc(-c4ccco4)cc(N4CCN(C(=O)c5ccoc5)CC4)n3n2)cc1` was tested, and the EC50 was 8180 nM. In the case of `CC(=O)N1CCN(c2cc(-c3ccco3)nc3cc(-c4ccccc4)nn23)CC1`, the EC50 is reported as “inactive”. Compound `Cc1coc(C)c1C(=O)N1CCN(c2cc(-c3ccco3)nc3cc(-c4ccccc4)nn23)CC1` has an EC50 of 3220 nM. `O=C(c1ccco1)N1CCN(c2c3c(nc4cc(-c5ccc(F)cc5)nn24)CCC3)CC1` was tested, and the EC50 was 701 nM. For `CC(=O)N1CCN(c2cc(C)nc3cc(-c4cccc(F)c4)nn23)CC1`, the EC50 was “inactive”. Work on `COc1ccc(-c2[nH]nc3nc(N4CCN(C(=O)c5ccoc5)CC4)cc(C(F)(F)F)c23)cc1` yielded an EC50 of 8440 nM. Compound `COC(=O)c1cccc(-c2cc(N3CCN(C(=O)c4ccoc4)CC3)n3nc(-c4cccc(OC)c4)cc3n2)c1` has an EC50 of 1680 nM. `COc1ccc(-c2cc3nc(-c4ccco4)cc(N4CCN(C(=O)c5ccoc5)CC4)n3n2)cc1` gave an EC50 of 1800 nM. `Cc1ccc(-c2cc3nc(-c4ccco4)cc(N4CCN(Cc5ccoc5)CC4)n3n2)cc1` showed an EC50 of 1820 nM. `O=C(c1ccoc1)N1CCN(c2cc(-c3ccccc3F)nc3cc(-c4ccccc4)nn23)CC1` gave an EC50 of 3620 nM. `COc1cccc(-c2cc3nc(-c4ccccc4)c(C)c(N4CCN(C(=O)c5ccoc5)CC4)n3n2)c1` was tested, and the EC50 was 1670 nM. `CN(CCCN(C)c1cc(-c2ccco2)nc2cc(-c3ccccc3)nn12)C(=O)c1ccoc1` was tested, and the EC50 was 2720 nM. In the case of `CN(CCN(C)c1cc(-c2ccco2)nc2cc(-c3ccccc3)nn12)C(=O)c1ccoc1`, the EC50 is reported as “inactive”. Compound `Cc1nc2cc(-c3ccc4c(c3)OCO4)nn2c(N2CCN(C(=O)c3ccoc3)CC2)c1C` has an EC50 of 613 nM. Compound `Cc1nc2cc(-c3cccc(F)c3)nn2c(N2CCN(C(=O)c3ccco3)CC2)c1C` has an EC50 of 1430 nM. Compound `COc1cccc(-c2cc3nc(-c4cccc(C(F)(F)F)c4)cc(N4CCN(C(=O)c5ccoc5)CC4)n3n2)c1` has an EC50 of 788 nM. For `COc1cccc(-c2cc3nc(-c4ccccc4)cc(N4CCN(C(=O)c5ccoc5)CC4)n3n2)c1`, the EC50 was 1920 nM. `CC(=O)N1CCN(c2cc(-c3ccco3)nc3cc(-c4cccc(Cl)c4)nn23)CC1` was tested, and the EC50 was 626 nM. `COc1cc(OC)cc(-c2cc3nc(C)c(C)c(N4CCN(C(=O)c5ccoc5)CC4)n3n2)c1` showed an EC50 of 664 nM. With `O=C(Nc1ccccc1)C1CCN(c2cc(-c3ccco3)nc3cc(-c4ccccc4)nn23)CC1` the EC50 was 6490 nM. Work on `O=C(c1ccccc1)N1CCN(c2cc(-c3ccco3)nc3cc(-c4ccccc4)nn23)CC1` yielded an EC50 of 1510 nM. Work on `O=C1CN(c2cc(-c3ccco3)nc3cc(-c4ccccc4)nn23)CCN1c1ccccc1` yielded an EC50 of 1360 nM. For `Cc1cc(N2CCN(C(=O)c3ccco3)CC2)n2ncc(-c3ccccc3)c2n1`, the EC50 was 7520 nM. `COc1ccc(-c2cc(N3CCN(C(=O)c4ccoc4)CC3)n3nc(-c4ccccc4)cc3n2)cc1` was tested, and the EC50 was 3640 nM. Work on `Cc1c(-c2ccco2)nc2cc(-c3ccccc3)nn2c1N1CCN(C(=O)c2ccoc2)CC1` yielded an EC50 of 2440 nM. For `CC(=O)N1CCN(c2c(C)c(C)nc3cc(-c4ccc(F)cc4)nn23)CC1`, the EC50 was “inactive”. Compound `O=C(c1ccoc1)N1CCCN(c2cc(-c3ccco3)nc3cc(-c4ccccc4)nn23)C1` has an EC50 of 1220 nM. `COc1cccc(-c2cc3nc(-c4ccco4)cc(N4CCN(C(=O)c5ccoc5)CC4)n3n2)c1` was tested, and the EC50 was 1860 nM. With `COc1ccc(-c2cc3nc(C)c(C)c(N4CCN(C(C)=O)CC4)n3n2)cc1` the EC50 was 6390 nM. Work on `Cc1cc(C(=O)N2CCN(c3cc(-c4ccco4)nc4cc(-c5ccccc5)nn34)CC2)c(C)o1` yielded an EC50 of 3810 nM. Work on `Cc1nc2cc(-c3ccc(F)cc3)nn2c(N2CCN(C(=O)c3ccco3)CC2)c1C` yielded an EC50 of 7640 nM. With `COc1cccc(-c2cc(N3CCN(C(=O)c4ccoc4)CC3)n3nc(-c4ccccc4)cc3n2)c1` the EC50 was 3330 nM. With `Cc1ccc(-c2nc3nc(C)cc(N4CCN(C(=O)c5ccco5)CC4)n3n2)cc1` the EC50 was 4170 nM. In the case of `O=C(c1ccoc1)N1CCN(c2cc(-c3ccco3)nc3cc(-c4cccs4)nn23)CC1`, the EC50 is reported as 2480 nM. Work on `O=C(c1ccoc1)N1CCN(c2cc(-c3ccco3)nc3cc(-c4cccc(-c5ccco5)c4)nn23)CC1` yielded an EC50 of 503 nM. Work on `Cc1cc(N2CCN(C(=O)c3ccco3)CC2)n2nc(-c3ccccc3)nc2n1` yielded an EC50 of 9430 nM. For `c1ccc(CN2CCN(c3cc(-c4ccco4)nc4cc(-c5ccccc5)nn34)CC2)cc1`, the EC50 was 1680 nM. For `Cc1nc2cc(-c3cccc(Cl)c3)nn2c(N2CCN(C(=O)c3ccoc3)CC2)c1C`, the EC50 was 9310 nM. With `COc1cccc(-c2cc3nc(C)c(C)c(N4CCN(C(=O)c5ccoc5)CC4)n3n2)c1` the EC50 was 3830 nM. With `O=C(c1ccoc1)N1CCN(c2cc(-c3ccco3)nc3cc(-c4ccccc4)nn23)CC1` the EC50 was 460 nM. For `O=C(OCc1ccccc1)N1CCN(c2cc(-c3ccco3)nc3cc(-c4ccccc4)nn23)CC1`, the EC50 was 2730 nM. Compound `O=C(c1ccoc1)N1CCN(c2cc(-c3cccs3)nc3cc(-c4ccccc4)nn23)CC1` has an EC50 of 1660 nM. `CN(C)c1cc(-c2ccco2)nc2cc(-c3ccccc3)nn12` gave an EC50 of 8870 nM. In the case of `COc1cccc(-c2cc3nc(C)c(C(C)C)c(N4CCN(C(=O)c5ccoc5)CC4)n3n2)c1`, the EC50 is reported as 6020 nM. With `CC1CN(C(=O)c2ccoc2)CCN1c1cc(-c2ccco2)nc2cc(-c3ccccc3)nn12` (centres undefined) the EC50 was 2920 nM. `COc1cccc(-c2cc3nc(-c4ccco4)cc(N4CCN(C(C)=O)CC4)n3n2)c1` showed an EC50 of 892 nM. Work on `CC1CN(C(=O)OC(C)(C)C)CCN1c1cc(-c2ccco2)nc2cc(-c3ccccc3)nn12` (centres undefined) yielded an EC50 of 3440 nM. `COc1ccccc1-c1cc2nc(-c3ccco3)cc(N3CCN(C(=O)c4ccoc4)CC3)n2n1` was tested, and the EC50 was 4270 nM.

Same assay, conditions: JC-1 efflux, at 50 µM (top of the series)
In the case of `COc1ccccc1-c1c(C)nn2c(N3CCN(C(=O)c4ccco4)CC3)cc(C)nc12`, the inhibition is reported as “inactive”.
